{"source": "paper PMC3171408", "about": "“Analysis of the BarA/UvrY Two-Component System in Shewanella oneidensis MR-1” (PLoS ONE, 2011)", "molecular_target": "T1, BarA(181–929) (Shewanella oneidensis, UniProt Q8EBQ2)", "T1 construct": "cytoplasmic region aa 181-929 of 929 aa (full length 103 kDa; two N-terminal TM domains removed), N-terminal 6xHis tag (pBAD-HisA), expressed in E. coli, Ni-NTA purified", "T1 sequence (Q8EBQ2 187-935)": "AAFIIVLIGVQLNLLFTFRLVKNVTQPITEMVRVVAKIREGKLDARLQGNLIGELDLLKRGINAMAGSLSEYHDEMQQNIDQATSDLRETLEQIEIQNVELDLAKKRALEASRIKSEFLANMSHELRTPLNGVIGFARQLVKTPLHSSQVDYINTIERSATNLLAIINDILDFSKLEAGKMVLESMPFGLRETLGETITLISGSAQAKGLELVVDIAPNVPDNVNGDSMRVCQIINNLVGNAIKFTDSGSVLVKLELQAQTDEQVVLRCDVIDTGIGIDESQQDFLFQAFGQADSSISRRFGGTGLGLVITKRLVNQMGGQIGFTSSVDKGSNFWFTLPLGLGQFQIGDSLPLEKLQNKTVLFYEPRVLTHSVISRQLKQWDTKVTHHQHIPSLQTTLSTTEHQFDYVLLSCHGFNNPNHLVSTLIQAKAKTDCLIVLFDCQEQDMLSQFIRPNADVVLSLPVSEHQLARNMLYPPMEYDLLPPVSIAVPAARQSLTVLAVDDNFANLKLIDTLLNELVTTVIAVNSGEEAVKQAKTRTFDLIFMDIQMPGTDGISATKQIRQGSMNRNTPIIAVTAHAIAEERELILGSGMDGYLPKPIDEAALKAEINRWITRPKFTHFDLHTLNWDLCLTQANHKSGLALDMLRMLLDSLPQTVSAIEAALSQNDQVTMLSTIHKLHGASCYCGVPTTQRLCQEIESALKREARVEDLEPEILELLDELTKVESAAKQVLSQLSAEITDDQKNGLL", "assay": "autophosphorylation, SDS-PAGE autoradiography", "format": "biochemical", "conditions": "0.5 mM ATP, 10 µM protein, 5 mM MgCl2, 50 mM KCl, pH 8.0, room temperature; labelled compound", "data": [{"smiles": "Nc1ncnc2c1ncn2[C@@H]1O[C@H](COP(=O)(O)OP(=O)(O)OP(=O)(O)O)[C@@H](O)[C@H]1O", "note": "[[γ-^32P]ATP]", "values": [{"measurement": "autophosphorylation, SDS-PAGE autoradiography", "value": "BarA was readily phosphorylated, indicating autophosphorylation activity of the kinase region."}]}]}
